The values that follow come from patent US20210023074A1, “TREATMENT OF DEMYELINATING DISEASES” (Victoria Link Ltd., priority 2018, published 2021).

“Also recorded” adds a separate entry of the source.

This assay relates to experimental autoimmune encephalomyelitis (EAE) mice. Briefly: EAE model of MS, disease score, treatment from day of disease onset (score >1). The assay is classed as in vivo, C57BL/6 mice. The procedure: Experimental detail: EAE was induced in female C57BL/6 mice as described in Example 1. On the day of disease onset (score >1, dotted line), mice were started on daily treatment with vehicle only (Veh) or nalmefene (NaIM) at 0.1, 0.03, 0.01, or 0.003 mg/kg by i.p. injection. […]
Experimental detail: EAE was induced in female C57BL/6 mice as described in Example 1. On the day of disease onset (score >1, dotted line), mice were treated with vehicle only (daily), nalmefene (0.01 mg/kg by i.p. injection daily), the KOR antagonist norBNI (10 mg/kg by i.p. injection weekly), both nalmefene and norBNI, or the MOR antagonist BFNA (10 mg/kg by i.p. injection weekly).
Experimental detail: EAE was induced in female C57BL/6 mice as described in Example 1. On the day of disease onset (score >1, dotted line), mice were treated with vehicle only (daily), nalmefene (0.01 mg/kg by i.p. injection daily), the KOR antagonist norBNI (10 mg/kg by i.p. injection weekly), both nalmefene and norBNI, or the MOR antagonist BFNA (10 mg/kg by i.p. injection weekly). The peak disease score during the first EAE episode was recorded, and mice were considered recovered if they received a score <0.5 by day 23 post treatment initiation.
Experimental detail: EAE was induced in female C57BL/6 mice as described in Example 1.

As for `COC(=O)/C=C/C(=O)N[C@@H]1CC[C@@]2(O)[C@H]3Cc4ccc(O)c5c4[C@@]2(CCN3CC2CC2)[C@H]1O5` [BFNA], the “recovery from paralysis (disease score)” value (10 mg/kg i.p. weekly from disease onset) is recorded as “does not enable recovery”.
For `CN1CCC[C@@H]1CCO[C@](C)(c1ccccc1)c1ccc(Cl)cc1` [clemastine fumerate], where the note is “nalmefene 0.01 mg/kg i.p. daily, clemastine fumerate 10 mg/kg i.p.”, the “number of days in recovery (sustained recovery)” value is reported as “recovery is not sustained”.
As to `Oc1ccc2c3c1O[C@H]1c4[nH]c5c(c4C[C@@]4(O)[C@@H](C2)N(CC2CC2)CC[C@]314)C[C@@]1(O)[C@H]2Cc3ccc(O)c4c3[C@@]1(CCN2CC1CC1)[C@H]5O4` [norBNI], for the setting “norBNI 10 mg/kg i.p. weekly with nalmefene 0.01 mg/kg i.p. daily”, the “effect on nalmefene-mediated recovery from paralysis” value is “abolishes the ability of nalmefene to enable full recovery from paralysis; also recorded: abolishes the ability of nalmefene to enable and sustain recovery from paralysis”.
